Data: ChEMBL document CHEMBL3792319, “Synthesis and antitubercular activity of 1,2,4-trisubstitued piperazines” (Bioorg Med Chem Lett, 2016)
Values after ≈ are worked out from the molar mass of the structure shown.

Experiments:
[1] = system: Mycobacterium tuberculosis; assay: Antitubercular activity against Mycobacterium tuberculosis H37Rv measured after 7 days under aerobic condition; assay type: functional, organism-based; settings: 168 h
[2] = system: Mycobacterium tuberculosis; assay: Antitubercular activity against Mycobacterium tuberculosis H37Rv expressing bacterial luciferase infected murine J774 macrophage cells assessed as reduction in cell count at 20 uM measured after 4 days by luminescence analysis; assay type: functional
[3] = system: Mycobacterium tuberculosis; assay: Antitubercular activity against Mycobacterium tuberculosis H37Rv expressing bacterial luciferase infected murine J774 macrophage cells assessed as reduction in cell count at 200 uM measured after 4 days by luminescence analysis; assay type: functional
[4] = system: Mycobacterium tuberculosis; assay: Antimicrobial activity against Mycobacterium tuberculosis H37Rv expressing bacterial luciferase measured after 10 days under hypoxia condition by LORA assay; assay type: functional; settings: 240 h
[5] = system: Mycobacterium tuberculosis; assay: Bactericidal activity against Mycobacterium tuberculosis H37Rv measured upto 21 days; assay type: functional; settings: 504 h
[6] = system: Mycobacterium tuberculosis; assay: Antitubercular activity against Mycobacterium tuberculosis H37Rv measured after 5 days under aerobic condition by two-fold serial dilution method; assay type: functional; settings: 120 h

SMILES | IC90 [1] | MIC [1] | IC50 [1] | Activity [2] | Activity [3] | MIC [4] | MBC [5] | MIC [6]
CNC[C@H](Cc1ccccc1)N1CCN(CCc2c[nH]c3ccccc23)[C@H](C(C)C)C1 | 88.1 µM | > 100 µM | – | – | – | – | – | –
CNC[C@@H](Cc1ccccc1)N1CCN(CCC23CC4CC(CC(C4)C2)C3)[C@H](CO)C1 | 75.6 µM | > 100 µM | – | – | – | – | – | –
CNC[C@@H](CC(C)C)N1CCN(CCc2ccc(C)cc2)CC1 | > 200 µM | > 200 µM | > 200 µM | – | – | – | – | –
CCCC[C@@H](CNC)N1CCN(CCC23CC4CC(CC(C4)C2)C3)[C@H](C(C)C)C1 | 61.4 µM | 100 µM (≈ 40.4 µg/mL) | 51.8 µM | – | – | – | – | –
CCC(C)[C@H](CNC)N1CCN(CCC23CC4CC(CC(C4)C2)C3)[C@H](C(C)C)C1 (stereo partly drawn) | 99.5 µM | 100 µM (≈ 40.4 µg/mL) | 37.4 µM | – | – | – | – | –
CCC(C)[C@@H]1CN([C@@H](CNC)Cc2ccccc2)CCN1CCC12CC3CC(CC(C3)C1)C2 (stereo partly drawn) | 38 µM | 37.7 µM (≈ 17 µg/mL) | 17 µM | 2.4 log10CFU | 2.4 log10CFU | 9.8 µM (≈ 4.43 µg/mL) | 5 µM (≈ 2.26 µg/mL) | 41 µM (≈ 18.5 µg/mL)
CCCC[C@H](CNC)N1CCN(CCC23CC4CC(CC(C4)C2)C3)[C@H](C(C)CC)C1 (stereo partly drawn) | 33.7 µM | 50 µM (≈ 20.9 µg/mL) | 21.2 µM | – | – | – | – | –
CNC[C@@H](CO)N1CCN(CCc2ccc(C)cc2)[C@H](CC2CCCCC2)C1 | 160 µM | 200 µM (≈ 77.5 µg/mL) | 67 µM | – | – | – | – | –
CCC(C)[C@@H]1CN([C@H](CNC)Cc2ccccc2)CCN1CCC12CC3CC(CC(C3)C1)C2 (stereo partly drawn) | 35.5 µM | 50 µM (≈ 22.6 µg/mL) | 20.2 µM | – | – | – | – | –
CCC(C)[C@H](CNC)N1CCN(CCC23CC4CC(CC(C4)C2)C3)[C@H](CO)C1 (stereo partly drawn) | > 100 µM | > 100 µM | – | – | – | – | – | –
CC[C@H](C)[C@@H]1CN([C@@H](CNC)Cc2ccccc2)CCN1CC(C)(C)C | > 200 µM | > 200 µM | 190 µM | – | – | – | – | –
CCCC[C@@H](CNC)N1CCN(CCC23CC4CC(CC(C4)C2)C3)[C@H](CO)C1 | 70.6 µM | > 100 µM | – | – | – | – | – | –
CNCCN1CCN(CCC23CC4CC(CC(C4)C2)C3)[C@H](C(C)C)C1 | > 100 µM | > 100 µM | – | – | – | – | – | –
CNC[C@@H](Cc1ccccc1)N1CCN(CCC23CC4CC(CC(C4)C2)C3)[C@H](C(C)C)C1 | 37 µM | 50 µM (≈ 21.9 µg/mL) | 20.7 µM | 2.22 log10CFU | – | 52.2 µM (≈ 22.8 µg/mL) | 114 µM (≈ 49.9 µg/mL) | 14 µM (≈ 6.13 µg/mL)
CCCC[C@H](CNC)N1CCN(CCC23CC4CC(CC(C4)C2)C3)[C@H](C(C)C)C1 | 65.5 µM | 100 µM (≈ 40.4 µg/mL) | 47.5 µM | – | – | – | – | –
CNC[C@@H](CO)N1CCN(CCC(c2ccccc2)c2ccccc2)[C@H](CC2CCCCC2)C1 | 50 µM | 48.4 µM (≈ 22.4 µg/mL) | 22 µM | – | – | – | – | –
CCCC[C@@H](CNC)N1CCN(CCC23CC4CC(CC(C4)C2)C3)[C@H](C(C)CC)C1 (stereo partly drawn) | 54.2 µM | 100 µM (≈ 41.8 µg/mL) | 29.6 µM | – | – | – | – | –
CNC[C@@H](Cc1ccccc1)N1CCN(CCC(c2ccccc2)c2ccccc2)CC1 | > 61 µM | 52.3 µM (≈ 22.4 µg/mL) | 23 µM | 2.4 log10CFU | 2.4 log10CFU | > 200 µM | 20 µM (≈ 8.55 µg/mL) | 69 µM (≈ 29.5 µg/mL)
CNC[C@@H](Cc1ccccc1)N1CCN(CC2CCC(C)CC2)[C@H](C(C)C)C1 (stereo partly drawn) | 85.5 µM | > 100 µM | – | – | – | – | – | –
CNC[C@H](Cc1ccccc1)N1CCN(CCC23CC4CC(CC(C4)C2)C3)[C@H](CO)C1 | 66.1 µM | 100 µM (≈ 42.6 µg/mL) | 54.6 µM | – | – | – | – | –
CCCC[C@@H](CNC)N1CCN(CCc2c[nH]c3ccccc23)[C@H](C(C)C)C1 | 85.3 µM | > 100 µM | – | – | – | – | – | –
CNC[C@@H](Cc1ccccc1)N1CCN(CCC23CC4CC(CC(C4)C2)C3)CC1 | 99 µM | 61.2 µM (≈ 24.2 µg/mL) | 38 µM | 0 log10CFU | 2.7 log10CFU | 74 µM (≈ 29.3 µg/mL) | 100 µM (≈ 39.6 µg/mL) | 36 µM (≈ 14.2 µg/mL)
CCC(C)[C@H](CNC)N1CCN(CCc2c[nH]c3ccccc23)[C@H](C(C)C)C1 (stereo partly drawn) | > 100 µM | > 100 µM | – | – | – | – | – | –
CCC(C)[C@@H](CNC)N1CCN(CCc2ccc(C)cc2)CC1 (stereo partly drawn) | 110 µM | 93.9 µM (≈ 29.8 µg/mL) | 37 µM | – | – | – | – | –
